Read-outs that look alike come from different tables or passages of the source.
Key:
[1] = tested on: HaCaT cells; experiment: MTT cytotoxicity assay, skin keratinocytes HaCaT; type: cell-based, human; conditions: for IC50: Homo sapiens, HaCaT
Procedure: (§1) Cytotoxic activity was tested on human cancer and normal cells, namely: prostate cancer cell lines DU145 (ATCC HTB-81) and PC3 (ATCC CRL-1435), prostate epithelial cells PNT-2 (ECACC 95012613), melanoma cell lines A375 (ATCC CRL-1619) and HTB140 (ATCC Hs 294T) and skin keratinocytes HaCaT (obtained as a kind gift from prof. Marta Michalik, Department of Cell Biology, Jagiellonian University). DU145 cells were grown in a modified Eagle’s medium with a low (1.0 g/L) glucose concentration, as well as PC3 and PNT-2 cells in Dulbecco’s modified Eagle’s media: F12 HAM nutrient mixture. At the same time, melanoma cells and keratinocytes were maintained in a modified Eagle’s medium with a high (4.5 g/L) glucose concentration. The culture media (all supplied by Sigma-Aldrich Co.; St. Louis, MO, USA) contained antibiotics and 10% fetal bovine serum (FBS). All cultures were maintained at 37 °C in a humidified 5% CO2-containing atmosphere.
(§2) The examined flavonols were diluted in the culture media from freshly made stock solutions in MeOH (10 mg/mL) to the working concentrations (from 5 to 100 μg/mL).
(§3) Cells were seeded in 96-well plates (1.5 × 10^4 cells/well) and preincubated for 24 h (37 °C, 5% CO2). Then, the culture medium was replaced with a fresh medium containing different concentrations of the tested compounds (5–100 µg/mL). The incubation lasted 48 h. Cell viability was measured by an MTT assay, as previously described. The absorbance at 490 nm was measured using a Synergy II Biotek (BioTek Instruments, Winooski, VT, USA) microplate reader. Cytotoxic activity was assessed based on the cell viability expressed as the percentage of living cells. The results were the means of three independent measurements (±SD). Doxorubicin (Ebewe Pharma GmbH., Unterach, Austria) was used as a reference cytostatic drug. The IC50 values were determined by plotting the percentage viability of the cells versus the concentration and adequate calculations made using either Excel or the AAT Bioquest website program (https://www.aatbio.com/tools/ic50-calculator, accessed on 4 September 2022).

[2] = tested on: HTB140 cells; experiment: MTT cytotoxicity assay, melanoma cells HTB140; type: cell-based, human; conditions: for IC50: Homo sapiens
Procedure: as §1, §2, §3

[3] = tested on: PNT-2 cells; experiment: MTT cytotoxicity assay, normal prostate epithelial cells PNT-2; type: cell-based; conditions: Homo sapiens, PNT2
Procedure: as §1, §2, §3

[4] = tested on: A375 cells; experiment: MTT cytotoxicity assay, melanoma cells A375; type: cell-based, human; conditions: for IC50: Homo sapiens, A-375
Procedure: as §1, §2, §3

[5] = tested on: PC3 cells; experiment: MTT cytotoxicity assay, prostate cancer cells PC3; type: cell-based; conditions: Homo sapiens, PC-3, 48 h, 48 h treatment
Procedure: as §1, §2, §3

[6] = tested on: DU145 cells; experiment: MTT cytotoxicity assay, prostate cancer cells DU145; type: cell-based; conditions: Homo sapiens, DU-145
Procedure: as §1, §2, §3

[7] = tested on: A549 cells; design: method as in PMID 30673162; conditions: in vitro; cited from earlier work
[8] = tested on: HeLa cells; design: method as in PMID 30673162; conditions: in vitro; cited from earlier work
[9] = tested on: cholinesterase; design: method as in PMID 30673162; conditions: cited from earlier work
[10] = 48 h treatment, 5–100 μg/mL, MTT, read-out: IC50 HaCaT
[11] = 48 h treatment, 5–100 μg/mL, MTT, read-out: IC50 HTB140
[12] = 48 h treatment, 5–100 μg/mL, MTT, read-out: IC50 PNT-2
[13] = 48 h treatment, 5–100 μg/mL, MTT, read-out: IC50 A375
[14] = 48 h treatment, 5–100 μg/mL, MTT, read-out: IC50 DU145

| SMILES | IC50 [1, 10] [µg/mL] | IC50 ([1]; abstract, value in µM, read-out: IC50 HaCaT (remaining cell lines)) [µM] | cytotoxic activity toward keratinocytes ([1]; dose range of 5–100 μg/mL) | IC50 [2, 11] [µg/mL] | IC50 ([2]; abstract, value in µM, read-out: IC50 HTB140 (remaining cell lines)) [µM] | cytotoxic activity toward melanoma cells (HTB140) ([2]; dose range of 5–100 μg/mL) | IC50 [3, 12] [µg/mL] | IC50 ([3]; abstract, value in µM, read-out: IC50 PNT2 (remaining cell lines)) [µM] | IC50 [4, 13] [µg/mL] | IC50 ([4]; abstract, value in µM, read-out: IC50 A375 (remaining cell lines)) [µM] | cytotoxic activity toward melanoma cells (A375) ([4]; dose range of 5–100 μg/mL) | IC50 ([5]; 5–100 μg/mL) [µg/mL] | IC50 ([5]; value in µM) [µM] | IC50 [6, 14] [µg/mL] | IC50 ([6]; abstract, value in µM, read-out: IC50 DU145 (remaining cell lines)) [µM] | cytotoxic activity against A549 cells [7] | cytotoxic activity against HeLa cells [8] | anticholinesterase activity [9] |
| --- | --- | --- | --- | --- | --- | --- | --- | --- | --- | --- | --- | --- | --- | --- | --- | --- | --- | --- |
| COc1cc(-c2oc3cc(OC)c(O)c(O)c3c(=O)c2OC)ccc1O [Compound 11, quercetagetin 3,7,3′-trimethyl ether] | > 100 | > 150 | not active | > 100 | > 150 | not active | 82.4 ± 2.42 | > 150 | > 100 | > 150 | not active | 16.8 ± 0.77 | 46.6 | 54.87 ± 0.23 | > 150 | – | – | – |
| COc1cccc2c1C(=O)c1c(O)c3c(c(O)c1C2=O)C[C@@](O)(C(=O)CO)C[C@@H]3O[C@H]1C[C@H](N)[C@H](O)[C@H](C)O1 [Doxorubicin, reference compound] | 4.68 | – | – | 5.71 | – | – | 1.38 | – | 0.59 | – | – | > 50 | – | 3.18 | – | – | – | – |
| C=C1CC/C=C(/CO)C(=O)C[C@@H]2[C@@H]1C[C@]2(C)COC(C)=O [Compound 9, (1S,9R)-12β-acetoxy-14-hydroxycaryophyll-5(6)-en-7-one] | – | – | – | – | – | – | – | – | – | – | – | – | – | – | – | moderate cytotoxic activity | moderate cytotoxic activity | weak anticholinesterase activity |
| C=C1CC/C=C(/CO)C(=O)C[C@@H]2[C@@H]1CC2(C)C [Compound 8, (1S,9R)-14-hydroxycaryophyll-5(6)-en-7-one] | – | – | – | – | – | – | – | – | – | – | – | – | – | – | – | moderate cytotoxic activity | moderate cytotoxic activity | weak anticholinesterase activity |
